Measurements: patent publication US20250041294A1, “Synergistic compositions for use in the treatment of cancer” (Sartar Therapeutics Oy, priority 2021, published 2025)

Assays:
Assay type in all cases: cell-based
[1] = system: GOT3 cell line; test: High throughput drug sensitivity and resistance test (CellTiter-Glo, 72 hours); conditions: GOT3; for GOT3 cell line: DSS(combo (BAY2666605))-DSS(drug): drug combined with BAY2666605 (40 nM) minus drug alone; for GOT3 cell line: DSS(combo (anagrelide))-DSS(drug): drug combined with anagrelide hydrochloride (100 nM) minus drug alone
Method in brief: (§1)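 Compounds were plated in 10-fold dilutions spanning a 10,000-fold range, alone or with anagrelide (100 nM; SA4, GOT3) or BAY2666605 (40 nM; GIST882, SA4, GOT3). Viability was read by CellTiter-Glo after 72 h and normalized to DMSO and benzethonium chloride controls. Responses were expressed as DSS from four-parameter fits, and the single-agent DSS was subtracted from the combination DSS.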

[2] = system: SA4 cell line; test: as above; conditions: SA4; for SA4 cell line: DSS(combo (BAY2666605))-DSS(drug): drug combined with BAY2666605 (40 nM) minus drug alone; for SA4 cell line: DSS(combo (anagrelide))-DSS(drug): drug combined with anagrelide hydrochloride (100 nM) minus drug alone
Method in brief: as §1

[3] = system: GIST882 cell line; test: as above; conditions: drug combined with BAY2666605 (40 nM) minus drug alone
Method: High throughput drug sensitivity and resistance test. […] In addition, same compounds were investigated together with anagrelide hydrochloride (100 nM) treatment in the PDE3A low expressing cell lines SA4 and GOT3, and with BAY2666605 (40 nM) in all PDE3A-positive cell lines GIST882, SA4 and GOT3. […] A cell viability was measured after 72 hours using CellTiter-Glo Cell Viability assay (Promega Inc.) and PHERAstar FS plate reader (BMG Labtech). The data were normalized to negative (0.01% dimethyl sulfoxide only) and positive (100 μmol/L benzethonium chloride) controls.
A four-parameter logistic dose-response curves were estimated by using the Marquardt-Levenberg algorithm and Breeze analysis platform. Drug responses to the test compounds were measured using the drug sensitivity score (DSS). Drug synergy partners, which were common in investigated cell lines were identified as following: DSS value of a single agent was subtracted from the DSS value of anagrelide-drug combination in single cell lines. […] The analysis was repeated by using BAY2666605 as a PDE3A modulator.

[4] = system: GOT3 and SA4 cell lines; test: High throughput drug sensitivity and resistance test, average over cell lines (anagrelide combination); conditions: anagrelide combination, average of SA4 and GOT3; aDSS higher than 3.0 = synergy
Method in brief: as §1

[5] = system: GIST882, GOT3 and SA4 cell lines; test: High throughput drug sensitivity and resistance test, average over cell lines (BAY2666605 combination); conditions: for Average DSS (aDSS): BAY2666605 combination, average of GIST882, SA4 and GOT3, aDSS higher than 3.0 = synergy; for synergy in high-throughput screening (in words): with anagrelide (GOT3, SA4) or BAY2666605 (GIST882, GOT3, SA4)
Method in brief: as §1

[6] = system: GIST882 cell line; test: Drug combination testing with concentration matrices, SynergyFinder 2.0; conditions: combination with anagrelide, seven-concentration matrices
Method: (§2) Drug combination testing with anagrelide and 12 selected drugs was performed as described above but with selected drugs using drug concentration matrices covering seven different concentrations with 3 replicate sample of each combinations and in two replicate assays. […] The tool implements synergy scoring with four major reference models: HSA, Loewe, Bliss and ZIP models. The degree of a drug combination effect can be readily visualized as a synergy landscape map over the dose matrix and ZIP synergy score.

[7] = system: GOT3 cell line; test: as above; conditions: combination with anagrelide, seven-concentration matrices
Method: as §2

[8] = system: SA4 cell line; test: as above; conditions: combination with anagrelide, seven-concentration matrices
Method: as §2

[9] = system: GIST882, SA4, and GOT3 cell lines; test: Drug combination testing with concentration matrices, SynergyFinder 2.0 (all three cell lines); conditions: drug concentration matrices and SynergyFinder 2.0, with or without Anagrelide
Method: Drug combination testing with anagrelide and 12 selected drugs was performed as described above but with selected drugs using drug concentration matrices covering seven different concentrations with 3 replicate sample of each combinations and in two replicate assays. Synergy was assessed using an R package SynergyFinder 2.0 (Ianevski A, et al. 2020). The tool implements synergy scoring with four major reference models: HSA, Loewe, Bliss and ZIP models. The degree of a drug combination effect can be readily visualized as a synergy landscape map over the dose matrix and ZIP synergy score.

[10] = system: GIST882, SA4 and GOT3 cell lines; test: Cell viability assay (96 well, CellTiter-Glo, 72 hours); conditions: for synergy with Bcl-family inhibitor A-1155463 (in words): FIG. 2, cell line not stated
Method: Cell viability assay. Cells were plated on 96 Well White/Clear Tissue Culture Treated Plate (FALCON, 353377) 24 hours prior to medium change with drugs. Viabilities of cells in different treatments were evaluated 72 hours after treatment incubation with CellTiter-Glo® Luminescent Cell Viability Assay (G7572, Promega) following manufacturer's instruction. Reagent and cells stabilized to room temperature. Reagent added 100 μl/well, shaken for 2 minutes at room temperature and incubated for 10 min at room temperature before measuring the luminescence by using Hidex Sence microplate reader (Hidex oy). Growth medium was used to exclude background signal from the results.

Row | SMILES | GOT3 cell line: DSS(combo (BAY2666605))-DSS(drug) [1] | GOT3 cell line: DSS(combo (anagrelide))-DSS(drug) [1] | SA4 cell line: DSS(combo (BAY2666605))-DSS(drug) [2] | SA4 cell line: DSS(combo (anagrelide))-DSS(drug) [2] | GIST882 cell line: DSS(combo (BAY2666605))-DSS(drug) [3] | Average DSS (aDSS) [4] | Average DSS (aDSS) [5] | synergy in high-throughput screening (in words) [5] | Average ZIP synergy score [6] | Average ZIP synergy score [7] | Average ZIP synergy score [8] | efficacy in cell lines (in words) [9] | synergy with DNMDP (in words) ([10]; FIGS. 7-8) | cell viability, combination result (in words) ([10]; treated together with 3-hydroxy-anagrelide, FIGS. 5 and 6) | cell viability, combination result (in words) ([10]; treated together with Anagrelide, FIGS. 3 and 4) | synergy with Bcl-family inhibitor A-1155463 (in words) [10] | synergy with Bcl-family inhibitor A-1155463 (in words) ([10]; listed as cilostazol)
1 | Cc1c(-c2ccc(N3CCc4cccc(C(=O)Nc5nc6ccccc6s5)c4C3)nc2C(=O)O)cnn1CC12CC3CC(CC(C3)C1)C2 [A-1331852] | 2.8 | 3.6 | 12.6 | 14.9 | 15.1 | 9.25 | 10.2 | synergistic | 9.6 | 11.6 | 11.1 | significant efficacy in cell lines only when they were administered with Anagrelide | – | – | – | – | –
2 | Cn1cc(CNCC2CCN(c3ncc(C(=O)NO)cn3)CC2)c2ccccc21 [Quisinostat, quisinostat] | 8 | 1.9 | 16.2 | 15.8 | 8.7 | 8.85 | 11.0 | synergistic | 6.5 | 6.9 | 8.7 | – | – | – | – | – | –
3 | Cc1nc(Nc2n[nH]c3c2CN(C(=O)N[C@H](CN(C)C)c2ccccc2)C3(C)C)c2sccc2n1 [PF-03758309] | −3.6 | 3.7 | 13.4 | 20.1 | 0.5 | 11.9 | 3.4 | synergistic | 11.5 | 8.5 | 16.8 | – | – | – | – | – | –
4 | CO[C@H]1C[C@@H]2CC[C@@H](C)[C@@](O)(O2)C(=O)C(=O)N2CCCC[C@H]2C(=O)O[C@H]([C@H](C)C[C@@H]2CC[C@@H](OC(=O)C(C)(CO)CO)[C@H](OC)C2)CC(=O)[C@H](C)/C=C(\C)[C@@H](O)[C@@H](OC)C(=O)[C@H](C)C[C@H](C)/C=C/C=C/C=C/1C [Temsirolimus, temsirolimus] | 1.2 | 1.1 | 5.3 | 9.8 | 7.4 | 5.45 | 4.6 | synergistic | 2.8 | 0.4 | 3.6 | – | – | – | – | – | –
5 | CO[C@H]1C[C@@H]2CC[C@@H](C)[C@@](O)(O2)C(=O)C(=O)N2CCCC[C@H]2C(=O)O[C@H]([C@H](C)C[C@@H]2CC[C@@H](OCCO)[C@H](OC)C2)CC(=O)[C@H](C)/C=C(\C)[C@@H](O)[C@@H](OC)C(=O)[C@H](C)C[C@H](C)/C=C/C=C/C=C/1C [Everolimus, everolimus] | 4.1 | 3 | 12.4 | 8.1 | 3 | 5.55 | 6.5 | synergistic | 5 | 2.3 | 5.5 | – | – | – | – | – | –
6 | CN(C)CC#Cc1ccc(OCCCc2sc(N3CCc4cccc(C(=O)Nc5nc6ccccc6s5)c4C3)nc2C(=O)O)c(F)c1 [A-1155463] | 6.9 | 7.5 | −3.6 | 22.2 | 23 | 14.85 | 8.8 | synergistic | 15.5 | 12.7 | 11.1 | significant efficacy in cell lines only when they were administered with Anagrelide | showed synergy with DNMDP | verified the result | verified the result | – | –
7 | NS(=O)(=O)OC[C@@H]1C[C@@H](n2ccc3c(N[C@H]4CCc5ccccc54)ncnc32)C[C@@H]1O [Pevonedistat, pevonedistat] | 6.2 | 2.7 | 7 | 13.8 | 9.3 | 8.25 | 7.5 | synergistic | 4.6 | 12.7 | 7.8 | – | – | – | – | – | –
8 | O=C1CCc2cc(OCCCCc3nnnn3C3CCCCC3)ccc2N1 [Cilostazol] | – | – | – | – | – | – | – | – | – | – | – | – | – | – | – | does not show synergy | not however achieved
